≈ marks a conversion by molar mass, not a printed value. Where a name gives a salt, the structure may show the parent alone. *1 amine or outer side, *2 acyl side, *3 side chain or, on linkers, in order; H or OH if unused. Where a SMILES comes first, the peptide text is derived from it. Bridges are numbered along the chain shown (N, C = ends). Roman numbers before positions name the chains, in order. [ ]: non-standard residue; d: D form. Actinocin(9to1) = Cc1c2oc3c(C)ccc(C(=O)[*:1])c3nc-2c(C(=O)[*:2])c(N)c1=O; NMeV = CN[C@H](C(=O)O)C(C)C; Sar = CNCC(=O)O
What follows are compounds tested on neurons isolated from the cerebrum (assay: Naturally occurring neuronal death suppressing action (serum-free cultivation, Crystal Violet)). Details: Rattus norvegicus, Neuron, 72 h; 0.3 μg/ml; serum-free, 3 days; read-out: Suppression of Naturally Occurring Neuronal Death.
Assay type: cell-based, embryonic day 16 rats
Procedure: The action of compounds to suppress the naturally occurring death of neurons was evaluated in terms of their effectiveness in suppressing or inhibiting the naturally occurring death of neurons as induced by exposing cultured neurons to serum-free cultivation conditions. An experiment was run by a method adapted from the method of Shimojo et al., Neurosci. Lett., 151, 170, 1993. Specifically, neurons were isolated from the cerebrum of embryonic day 16 rats in the usual manner, suspended in a DMEM/F12 medium containing 1% fetal bovine serum, seeded onto a polylysine-coated culture plate at a density of 5×10^4 cells per square centimeter and cultivated at 37° C. in 95% air+5% CO2. After one day of culture, the medium was replaced with a serum-free medium containing a compound to be tested and the cultivation was continued for 3 more days. Subsequently, the cells were fixed with 1% glutaraldehyde and their number was determined by calorimetric quantification using Crystal Violet (Anal. Biochem., 182, 16-19, 1989). The percent suppression of neuronal death by the test compound was determined by the following formula:
(§1) 100×(ODtest-ODcontrol)/(ODnormal-ODcontrol) (%)
where ODtest is the number of cells (absorbance) in the group of addition of test compound after serum removal, ODcontrol is the number of cells (absorbance) in a control group after serum removal, and ODnormal is the number of cells (absorbance) in a control (normal) group without serum removal.
`Cc1ccc(-c2[nH]c3cccc4c3c2CCC4N)cc1` (stereo not drawn) [Example 99, 5-amino-2-(4-methylphenyl)-1,3,4,5-tetrahydrobenz[cd]indole] showed an inhibition at 0.3 µg/mL of 59%. In the case of `NC1CCc2c(-c3ccc(Cl)cc3)[nH]c3c(Cl)ccc1c23` (stereo not drawn) [Example 103, 5-amino-8-chloro-2-(4-chlorophenyl)-1,3,4,5-tetrahydrobenz[cd]indole], the inhibition at 0.3 µg/mL is reported as 56%. Compound `NC1CCc2c(-c3ccccc3)[nH]c3ccc(O)c1c23` (stereo not drawn) [Example 174, 5-amino-6-hydroxy-2-phenyl-1,3,4,5-tetrahydrobenz[cd]indole] has an inhibition at 0.3 µg/mL of 64%. For `NC1CCc2c(-c3ccccc3O)[nH]c3cccc1c23` (stereo not drawn) [Example 185, 5-amino-2-(2-hydroxyphenyl)-1,3,4,5-tetrahydrobenz[cd]indole], the inhibition at 0.3 µg/mL was 100%.

Same assay, conditions: Rattus norvegicus, Neuron, 72 h; 1.0 μg/ml; serum-free, 3 days; read-out: Suppression of Naturally Occurring Neuronal Death
Work on `NC1CCc2c(-c3ccc(Cl)cc3)[nH]c3cccc1c23` (stereo not drawn) [Example 96, 5-amino-2-(4-chlorophenyl)-1,3,4,5-tetrahydrobenz[cd]indole] yielded an inhibition at 1 µg/mL of 37%. For `CNC1CCc2c(-c3ccccc3)[nH]c3cccc1c23` (stereo not drawn) [Example 130, 5-(N-methylamino)-2-phenyl-1,3,4,5-tetrahydrobenz[cd]indole], the inhibition at 1 µg/mL was 76%. With `c1ccc(-c2[nH]c3cccc4c3c2CCC4N2CCOCC2)cc1` (stereo not drawn) [Example 148, 5-morpholino-2-phenyl-1,3,4,5-tetrahydrobenz[cd]indole] the inhibition at 1 µg/mL was 65%. `c1ccc(CNC2CCc3c(-c4ccccc4)[nH]c4cccc2c34)cc1` (stereo not drawn) [Example 153, 5-(N-benzylamino)-2-phenyl-1,3,4,5-tetrahydrobenz[cd]indole] showed an inhibition at 1 µg/mL of 100%. `OC1CCN(C2CCc3c(-c4ccccc4)[nH]c4cccc2c34)CC1` (stereo not drawn) [Example 216, 5-(4-hydroxypiperidino)-2-phenyl-1,3,4,5-tetrahydrobenz[cd]indole] was tested, and the inhibition at 1 µg/mL was 75%.

Same assay, conditions: Rattus norvegicus, Neuron, 72 h; 3.0 μg/ml; serum-free, 3 days; read-out: Suppression of Naturally Occurring Neuronal Death
With `NC1CCc2c(-c3ccccc3)[nH]c3ccc(Br)c1c23` (stereo not drawn) [Example 87, 5-amino-6-bromo-2-phenyl-1,3,4,5-tetrahydrobenz[cd]indole] the inhibition at 3 µg/mL was 84%. `CN(C)C1CCc2c(-c3ccccc3)[nH]c3cccc1c23` (stereo not drawn) [Example 121, 5-(N,N-dimethylamino)2-phenyl-1,3,4,5-tetrahydrobenz[cd]indole] gave an inhibition at 3 µg/mL of 72%. For `CC(=O)NC1CCc2c(-c3ccccc3)[nH]c3cccc1c23` (stereo not drawn) [Example 124, 5-(N-acetylamino)-2-phenyl-1,3,4,5-tetrahydrobenz[cd]indole], the inhibition at 3 µg/mL was 23%. `c1ccc(-c2[nH]c3cccc4c3c2CCC4N2CCCCC2)cc1` (stereo not drawn) [Example 151, 2-phenyl-5-piperidino-1,3,4,5-tetrahydrobenz[cd]indole] gave an inhibition at 3 µg/mL of 98%. In the case of `Cn1c(-c2ccccc2)c2c3c(cccc31)C(NCC(=O)O)CC2` (stereo not drawn) [Example 223, 5-[N-(carboxymethyl)]amino-1-methyl-2-phenyl-1,3,4,5-tetrahydrobenz[cd]indole hydrochloride], the inhibition at 3 µg/mL is reported as 81%. `CCOC(=O)CNC1CCc2c(-c3ccccc3)n(C)c3cccc1c23` (stereo not drawn) [Example 244, 5-[N-(ethoxycarbonylmethyl)]amino-1-methyl-2-phenyl-1,3,4,5-tetrahydrobenz[cd]indole hydrochloride] showed an inhibition at 3 µg/mL of 57%.

Same assay, conditions: serum-free condition
`Cc1c2oc3c(C)ccc(C(=O)N[C@@H]4C(=O)N[C@H](C(C)C)C(=O)N5CCC[C@H]5C(=O)N(C)CC(=O)N(C)[C@@H](C(C)C)C(=O)O[C@@H]4C)c3nc-2c(C(=O)N[C@@H]2C(=O)N[C@H](C(C)C)C(=O)N3CCC[C@H]3C(=O)N(C)CC(=O)N(C)[C@@H](C(C)C)C(=O)O[C@@H]2C)c(N)c1=O` [actinomycin D, reference compound] (I: T[dV]P[Sar][NMeV] / II: T[dV]P[Sar][NMeV]; ester I:1-I:C, II:1-II:C; linker I:N-II:N via Actinocin(9to1)) was tested, and the “suppression of death of neurons under the serum-free condition (in words)” value was “suppressed”. For `O=C(O)C1=CC(=C(c2ccc(O)c(C(=O)O)c2)c2ccc(O)c(C(=O)O)c2)C=CC1=O` [aurin tricarboxylic acid, reference compound], the “suppression of death of neurons under the serum-free condition (in words)” value was “suppressed”. For `C[C@@H]1C[C@@H]([C@H](O)CC2CC(=O)NC(=O)C2)C(=O)[C@@H](C)C1` [cycloheximide, reference compound], the “suppression of death of neurons under the serum-free condition (in words)” value was “suppressed”.

These compounds were tested on neurons isolated from the cerebrum (assay: Veratrine-induced neuronal death suppressing action (MTT)). Details: Rattus norvegicus, Neuron; veratrine 0.35 mM; MTT after 24 h; probit method; read-out: IC50 (50% suppression of veratrine-induced neuronal death).
Assay type: cell-based, embryonic day 16 rats
Procedure: The action of compounds to suppress the death of neurons induced by veratrine was evaluated in terms of their effectiveness in suppressing the neuronal death as induced by direct addition of veratrine. An experiment was run by a method adapted from the method of Powells et al., J. Pharmacol. Exp. Therapeutics, 255, 1117, 1987. Specifically, neurons were isolated from the cerebrum of embryonic day 16 rats in the usual manner, suspended in a MEM medium containing 10% fetal bovine serum, seeded onto a polylysine-coated culture plate at a density of 2.5×10^5 cells per square centimeter and cultivated at 37° C. in 95% air+5% CO2. Starting on the fifth day of cultivation, treatment was conducted with 10 μM of cytosine arabinoside for 2 days and the cultivation was continued until the 12th day, when a test was run as follows. The cells were treated with a buffer solution containing veratrine (0.35 mM) and a test compound, replaced in a serum-containing medium and cultivated for another 24 h. Subsequently, the number of viable cells was determined by calorimetric quantification using 3-(4,5-dimethylthiazol-2-yl)-2,5-diphenyltetrazolium bromide (MTT). The percent suppression of neuronal death by the test compound was determined by the following formula:
as §1
where ODtest is the number of cells (absorbance) in the group of addition of veratrine+test compound, ODcontrol is the number of cells (absorbance) in a control group of addition of veratrine, and ODnormal is the number of cells (absorbance) in a control (normal) group without addition of veratrine.
In addition, IC50 values indicating the effectiveness in achieving 50% suppression of neuronal death were calculated by the probit method on the basis of the result from more than one concentration.
For `NC1CCc2c(-c3ccccc3)[nH]c3ccc([N+](=O)[O-])c1c23` (stereo not drawn) [Example 90, 5-amino-6-nitro-2-phenyl-1,3,4,5-tetrahydrobenz[cd]indole], the IC50 was 0.7 µg/mL (≈ 2.39 µM). Compound `NC1CCc2c(-c3ccc(F)cc3)[nH]c3cccc1c23` (stereo not drawn) [Example 95, 5-amino-2-(4-fluorophenyl)-1,3,4,5-tetrahydrobenz[cd]indole] has an IC50 of 3.1 µg/mL (≈ 11.6 µM). With `Cn1c(-c2ccccc2)c2c3c(cccc31)C(N)CC2` (stereo not drawn) [Example 107, 5-amino-1-methyl-2-phenyl-1,3,4,5-tetrahydrobenz[cd]indole] the IC50 was 0.33 µg/mL (≈ 1.26 µM). `COc1ccc2[nH]c(-c3ccccc3)c3c2c1C(N)CC3` (stereo not drawn) [Example 110, 5-amino-6-methoxy-2-phenyl-1,3,4,5-tetrahydrobenz[cd]indole] was tested, and the IC50 was 1.8 µg/mL (≈ 6.47 µM). `Cc1cc2c3c(c(-c4ccccc4)[nH]c3c1)CCC2N` (stereo not drawn) [Example 113, 5-amino-7-methyl-2-phenyl-1,3,4,5-tetrahydrobenz[cd]indole] was tested, and the IC50 was 0.7 µg/mL (≈ 2.67 µM). With `CCCN(CCC)C1CCc2c(-c3ccccc3)[nH]c3cccc1c23` (stereo not drawn) [Example 150, 5-(N,N-dipropylamino)-2-phenyl-1,3,4,5-tetrahydrobenz[cd]indole] the IC50 was 1.2 µg/mL (≈ 3.61 µM). Work on `COC(=O)c1ccc(-c2[nH]c3c(Cl)ccc4c3c2CCC4N)cc1` (stereo not drawn) [Example 171, 5-amino-8-chloro-2-(4-methoxycarbonylphenyl)-1,3,4,5-tetrahydrobenz[cd]indole] yielded an IC50 of 1.9 µg/mL (≈ 5.57 µM). Work on `NC1CCc2c(-c3ccccc3)[nH]c3ccc(O)c1c23` (stereo not drawn) [Example 174, 5-amino-6-hydroxy-2-phenyl-1,3,4,5-tetrahydrobenz[cd]indole] yielded an IC50 of 3.4 µg/mL (≈ 12.9 µM). `COc1ccccc1-c1[nH]c2cccc3c2c1CCC3N` (stereo not drawn) [Example 184, 5-amino-2-(2-methoxyphenyl)-1,3,4,5-tetrahydrobenz[cd]indole] showed an IC50 of 0.8 µg/mL (≈ 2.87 µM). For `COC(=O)C1CCN(C2CCc3c(-c4ccccc4)[nH]c4cccc2c34)CC1.Cl` (stereo not drawn) [Example 225, 5-(4-methoxycarbonylpiperidino)-2-phenyl-1,3,4,5-tetrahydrobenz[cd]indole hydrochloride], the IC50 was 2.2 µg/mL. `Cl.Cn1c(-c2ccccc2Cl)c2c3c(cccc31)C(N1CCOCC1)CC2` (stereo not drawn) [Example 239, 2-(2-chlorophenyl)-1-methyl-5-morpholino-1,3,4,5-tetrahydrobenz[cd]indole hydrochloride] gave an IC50 of 2.2 µg/mL.

These compounds were tested on pyramidal cells in the hippocampus CA1 region (assay: Effectiveness in gerbil model of delayed neuronal death (damage score, 4 min ischemia)). Details: 2 mg/kg, carotid arteries 5 min before ischemia; score 0-4; ischemic control 2.9 ± 0.3; mean ± standard error (Table 3-1).
Assay type: in vivo
Procedure: Specifically, the cervical part of a gerbil under anesthesia by halothane inhalation was incised along the median line to expose the carotid artery on both sides, which were occuluded with clips for 4 min and thereafter brought back to patency. After suturing the incised part, the anesthetization was turned off and the animal was brought back to keeping under normal condition. Three days after loading of cerebral ischemia, the gerbil was anesthetized by administering pentobarbital, fixed by transcardiac formalin perfusion and had the brain isolated. A coronary slice including the fimbria hippocampi was prepared from the isolated brain and stained with Cresyl Violet. The pyramidal cells in the hippocampus CA1 region were examined under an optical microscope and the degree of damage was rated by the following scores: 0, no damage; 1, slight damage; 2, moderate damage; 3, significant damage; 4, total damage. Each test compound was administered through the carotid arteries 5 min before ischemia.
For `NC1CCc2c(-c3ccccc3)[nH]c3ccc(Br)c1c23` (stereo not drawn) [Example 87, 5-amino-6-bromo-2-phenyl-1,3,4,5-tetrahydrobenz[cd]indole], the “Score of damage to hippocampus CA1” value was 1.9 ± 0.6.

Same assay, conditions: 5 mg/kg, carotid arteries 5 min before ischemia; score 0-4; ischemic control 2.9 ± 0.3; mean ± standard error (Table 3-1)
In the case of `CNC1CCc2c(-c3ccccc3)[nH]c3cccc1c23` (stereo not drawn) [Example 130, 5-(N-methylamino)-2-phenyl-1,3,4,5-tetrahydrobenz[cd]indole], the “Score of damage to hippocampus CA1” value is reported as 1.9 ± 0.1.

Same assay, conditions: 10 mg/kg, carotid arteries 5 min before ischemia; score 0-4; ischemic control 2.9 ± 0.3; mean ± standard error (Table 3-1)
For `Cn1c(-c2ccccc2)c2c3c(cccc31)C(N)CC2` (stereo not drawn) [Example 107, 5-amino-1-methyl-2-phenyl-1,3,4,5-tetrahydrobenz[cd]indole], the “Score of damage to hippocampus CA1” value was 0.5 ± 0.5.

Same assay, conditions: 10 mg/kg, carotid arteries 5 min before ischemia; score 0-4; ischemic control 3.5 ± 0.4; mean ± standard error (Table 3-2)
For `Cl.Cn1c(-c2ccccc2F)c2c3c(cccc31)C(N1CCOCC1)CC2` (stereo not drawn) [Example 240, 2-(2-fluorophenyl)-1-methyl-5-morpholino-1,3,4,5-tetrahydrobenz[cd]indole hydrochloride], the “Score of damage to hippocampus CA1” value was 2.1 ± 0.5.
